According to patent US20080207759A1, “METHOD FOR PROTECTING MITOCHONDRIA” (SUCAMPO AG, priority 2007, published 2008):
No end group written: not given here.

How the values were obtained:
[1] = tested on: human pulmonary artery smooth muscle cells (PASMC); assay: ET-1 induced loss of mitochondrial membrane potential (JC-1 fluorescence); format: cell-based
Protocol: Human pulmonary Artery Smooth Muscle cells (PASMC) were grown to confluence on 10×22 mm glass cover slips in Clonetics smooth muscle basal media supplemented with growth hormones and fetal bovine serum. The cells on glass cover slips were then placed in 3 ml Hank's Balanced Salt Solution (HBSS) supplemented with […] of the mitochondrial dye JC-1 and incubated at 37° C. for 30 minute. The cells on the cover slips were then washed with 3 ml HBSS and mounted in a cuvette in a spectrofluorimeter with 3 ml HBSS. The emission spectra with excitation at 490 nm were taken over the range of 520 nm to 620 nm (150 sec). […] (0.1% acetone) FCCP, which leads complete depolarization of the mitochondrial membrane potential, was added at the end of each experiment. The spectra were normalized by dividing them by the fluorescence at 570 nm. The value obtained after FCCP treatment was assigned a value of 0 mV and the individual FCCP ratio was subtracted from each ratio point. The control (JC-1) fluorescence ratio was then assigned a value of +224 mV and the membrane potential [DmH(mV)] for each experimental point were calculated accordingly.
The cells were treated with 0.1% DMSO (vehicle for Compound 1), 1 nM Endothelin-1 (ET-1) or 1 nM ET-1 and 100 nM Compound 1 and scans were taken after 10, 30 and 60 minutes of the incubation. FCCP was added at the end and incubated for 60 minutes before taking scan. N=5 cover slips for all conditions.
The cells were treated with 0.1% DMSO or 1 nm Endothelin-1 (ET-1) and scans were taken after 30 minutes of incubation. The medium was then removed by washing the cells with fresh HBSS and scans were taken after 30 minutes. FCCP was added to the dish at the end and incubated for 60 minutes before taking scan. N=5 cover slips. In other set of 5 cover slips 1 nM Endothelin-1 (ET-1) and 100 nM Compound 1 were added and scans were taken after 30 minutes of incubation. The medium was then removed by washing the cells with fresh HBSS and 100 nM Compound 1 was added on top of it. Scans were taken after 30 minutes. FCCP was added at the end and incubated for 60 minutes before taking scan. N=3 cover slips.
The cells were treated with 1 nM Endothelin-1 (ET-1) and scans were taken after 30 minutes of incubation. The medium was then removed by washing the cells with fresh HBSS and HBSS supplemented with 100 nM Compound 1 was added to the cells. Scans were taken after 30 minutes. FCCP was added at the end and incubated for 60 minutes before taking scan. N=5 cover slips for all conditions.

[2] = tested on: Human lung alveolar type II cells (A549); assay: Cytochrome c translocation into the cytosol induced by cigarette smoke extract (cytochrome c ELISA); format: cell-based; conditions: 100 nM Compound A with 1%, 2.5% or 5% CSE, 24 hrs
Protocol: Smoke from 8 cigarettes were bubbled slowly through 100 ml of serum free culture medium and the resulting suspension was filtered through 0.20 μm filter. The solution was considered as 100% cigarette smoke extract (CSE). Human lung alveolar type II cells (A549) were seeded 1.5×10^5 cells per well in a 96 well plate and incubated for 48 hrs. The cells were then treated separately with either 100 nM Compound A (13,14-dihydro-15-keto-16,16-difluoro-18(S)-methyl-PGE1) or 1%, 2.5% and 5% CSE. In other sets, 100 nM Compound A was added along with 1%, 2.5% or 5% CSE. All incubations were done at 37° C. for 24 hrs. After 24 hr treatment, the cells were washed with 0-4° C. PBS three times. Measurement of cytochrome c that was translocated into the cytosol, a marker of cellular injury, was performed with a cytochrome c ELISA assay kit according to the instructions provided with the kit.

CCCCC(F)(F)C(=O)CCC1CCC(=O)C1CCCCCCC(=O)O (stereo not shown) [Compound 1, 11-deoxy-13,14-dihydro-15-keto-16,16-difluoro-PGE1]
protection against ET-1 induced loss of membrane potential (in words) ([1]; 100 nM Compound 1 with 1 nM ET-1, 10, 30 and 60 min): protects against ET-1 induced loss of membrane potential at all times tested
mitochondrial membrane potential ([1]; Example 1-2, 1 nM ET-1 along with 100 nM Compound 1, 30 min): 137.1±4.7 mV
mitochondrial membrane potential ([1]; Example 1-2, after removal of ET-1 with continued 100 nM Compound 1, further 30 min): 115.3±2.3 mV
mitochondrial membrane potential (rescue) ([1]; Example 1-3, ET-1 30 min, then ET-1 removed and 100 nM Compound 1 added, 30 min): 77.2±2.7 mV
mitochondrial membrane potential ([1]; PASMC, 1 nM ET-1 and 100 nM Compound 1, 10 min, control taken as 224 mV): 114.2±2.6 mV
mitochondrial membrane potential ([1]; PASMC, 1 nM ET-1 and 100 nM Compound 1, 30 min, control taken as 224 mV): 104.02±5.0 mV
mitochondrial membrane potential ([1]; PASMC, 1 nM ET-1 and 100 nM Compound 1, 60 min, control taken as 224 mV): 73.1±2.4 mV

CC[C@H](C)CC(F)(F)C(=O)CC[C@H]1[C@H](O)CC(=O)[C@@H]1CCCCCCC(=O)O [Compound A, 13,14-dihydro-15-keto-16,16-difluoro-18(S)-methyl-PGE1]
cytochrome c translocation by CSE (in words) [2]: protected against cytochrome c translocation by CSE

Endothelin-1 (CSCSSLMDKECVYFCHLDIIW; ends and bridges not checked; cysteine pairing not given here; UniProt P05305 53-73, looked up) [ET-1, reference compound]
mitochondrial membrane potential ([1]; Example 1-2, ET-1 30 min, then ET-1 removed, scan after 30 min): 49.3±2.2 mV
mitochondrial membrane potential ([1]; Examples 1-2 and 1-3, ET-1 alone, 30 min): 50.3±5.6 mV
mitochondrial membrane potential ([1]; PASMC, 1 nM ET-1 alone, 10 min, control taken as 224 mV): 54.5±4.3 mV
mitochondrial membrane potential ([1]; PASMC, 1 nM ET-1 alone, 30 min (Example 1-1), control taken as 224 mV): 28.0±2.8 mV
mitochondrial membrane potential ([1]; PASMC, 1 nM ET-1 alone, 60 min, control taken as 224 mV): 13.1±1.0 mV
